Converted amounts (≈) assume the structure as drawn.
System: M. catarrhalis A894
Experiment: Minimal inhibitory concentration (MIC), microdilution method in cation-adjusted Mueller-Hinton Broth (CLSI M7-A7)
Assay type: cell-based
Settings: strain A894; for MIC: Moraxella catarrhalis
Description: Minimal inhibitory concentrations (MICs; mg/1) were determined in cation-adjusted Mueller-Hinton Broth by a microdilution method following the description given in “Methods for Dilution Antimicrobial Susceptibility Tests for Bacteria that Grow Aerobically”, Approved standard, 7th ed., Clinical and Laboratory Standards Institute (CLSI) Document M7-A7, Wayne, Pa., USA, 2006.

Compound	MIC	MIC for M. catarrhalis A894
CN(C)Cc1ccc2c3c1ccc(=O)n3C[C@@H]2NCCC[C@H]1CN(c2ccc3c(c2)NC(=O)CS3)C(=O)O1 [Example 122, (R)-7-dimethylaminomethyl-1-{3-[(S)-2-oxo-3-(3-oxo-3,4-dihydro-2H-benzo[1,4]thiazin-6-yl)-oxazolidin-5-yl]-propylamino}-1,2-dihydro-pyrrolo[3,2,1-ij]quinolin-4-one]	0.5 µg/mL (≈ 0.937 µM)	–
COc1nc2ccc(F)c3c2n(c1=O)C[C@@H]3NCCC[C@@H]1CN(c2ccc3c(c2)NC(=O)CS3)C(=O)O1 [Example 112, (R)-7-fluoro-2-methoxy-6-{3-[(R)-2-oxo-3-(3-oxo-3,4-dihydro-2H-benzo[1,4]thiazin-6-yl)-oxazolidin-5-yl]-propylamino}-5,6-dihydro-pyrrolo[1,2,3-de]quinoxalin-3-one]	≤ 0.031 µg/mL	–
O=C1COc2ccc(N3C[C@@H](CCCN[C@@H]4Cn5c(=O)cnc6ccc(F)c4c65)OC3=O)cc2N1 [Example 57, (S)-7-fluoro-6-{3-[(R)-2-oxo-3-(3-oxo-3,4-dihydro-2H-benzo[1,4]oxazin-6-yl)-oxazolidin-5-yl]-propylamino}-5,6-dihydro-pyrrolo[1,2,3-de]quinoxalin-3-one]	≤ 0.031 µg/mL	–
O=C1CSc2ccc(N3C[C@@H](CCCNC4Cn5c(=O)ccc6ccc(F)c4c65)OC3=O)cc2N1 (mixture of isomers) [Example 13, (1RS)-9-fluoro-1-{3-[(R)-2-oxo-3-(3-oxo-3,4-dihydro-2H-benzo[1,4]thiazin-6-yl)-oxazolidin-5-yl]-propylamino}-1,2-dihydro-pyrrolo[3,2,1-ij]quinolin-4-one]	≤ 0.031 µg/mL	–
O=C1CSc2ccc(N3C[C@H](CCCN[C@H]4Cn5c(=O)ccc6ccc(F)c4c65)OC3=O)cc2N1 [Example 129, (R)-9-fluoro-1-{3-[(S)-2-oxo-3-(3-oxo-3,4-dihydro-2H-benzo[1,4]thiazin-6-yl)-oxazolidin-5-yl]-propylamino}-1,2-dihydro-pyrrolo[3,2,1-ij]quinolin-4-one]	≤ 0.031 µg/mL	–
O=C1O[C@@H](CCNCC2Cn3c(=O)ccc4ccc(F)c2c43)CN1c1ccc2c(c1)OCCO2 (mixture of isomers) [Example 60, (RS)-1-({2-[(S)-3-(2,3-dihydro-benzo[1,4]dioxin-6-yl)-2-oxo-oxazolidin-5-yl]-ethylamino}-methyl)-9-fluoro-1,2-dihydro-pyrrolo[3,2,1-ij]quinolin-4-one]	≤ 0.031 µg/mL	–
O=C1CSc2ccc(N3C[C@@H](CCNCC4CN5C(=O)CCc6ccc(F)c4c65)OC3=O)cc2N1 (mixture of isomers) [Example 23, (1RS)-9-fluoro-1-({2-[(R)-2-oxo-3-(3-oxo-3,4-dihydro-2H-benzo[1,4]thiazin-6-yl)-oxazolidin-5-yl]-ethylamino}-methyl)-1,2,5,6-tetrahydro-pyrrolo[3,2,1-ij]quinolin-4-one]	≤ 0.031 µg/mL	–
O=C1COc2ccc(N3C[C@@H](CNCC4Cn5c(=O)ccc6cccc4c65)OC3=O)cc2N1 (mixture of isomers) [Example 82, (RS)-1-({[(R)-2-oxo-3-(3-oxo-3,4-dihydro-2H-benzo[1,4]oxazin-6-yl)-oxazolidin-5-ylmethyl]-amino}-methyl)-1,2-dihydro-pyrrolo[3,2,1-ij]quinolin-4-one]	0.25 µg/mL	–
O=C1CSc2ccc(N3C[C@H](CNCC4Cn5c(=O)ccc6cccc4c65)OC3=O)cc2N1 (mixture of isomers) [Example 81, (RS)-1-({[(S)-2-oxo-3-(3-oxo-3,4-dihydro-2H-benzo[1,4]thiazin-6-yl)-oxazolidin-5-ylmethyl]-amino}-methyl)-1,2-dihydro-pyrrolo[3,2,1-ij]quinolin-4-one]	≤ 0.031 µg/mL	–
C[C@H]1[C@H](NCCC[C@H]2CN(c3ccc4c(c3)NC(=O)CS4)C(=O)O2)c2c(F)ccc3ccc(=O)n1c23 (relative stereo) [Example 184, (1R*,2S*)-9-fluoro-2-methyl-1-{3-[(S)-2-oxo-3-(3-oxo-3,4-dihydro-2H-benzo[1,4]thiazin-6-yl)-oxazolidin-5-yl]-propylamino}-1,2-dihydro-pyrrolo[3,2,1-ij]quinolin-4-one]	≤ 0.031 µg/mL	–
O=C1COc2ccc(N3C[C@H](CCN[C@H]4Cn5c(=O)ccc6cccc4c65)OC3=O)cc2N1 [Example 157, (R)-1-{2-[(S)-2-oxo-3-(3-oxo-3,4-dihydro-2H-benzo[1,4]oxazin-6-yl)-oxazolidin-5-yl]-ethylamino}-1,2-dihydro-pyrrolo[3,2,1-ij]quinolin-4-one]	2 µg/mL (≈ 4.48 µM)	–
O=C1CSc2ccc(N3C[C@H](CCN[C@@H]4Cn5c(=O)ccc6cccc4c65)OC3=O)cc2N1 [Example 88, (S)-1-{2-[(S)-2-oxo-3-(3-oxo-3,4-dihydro-2H-benzo[1,4]thiazin-6-yl)-oxazolidin-5-yl]-ethylamino}-1,2-dihydro-pyrrolo[3,2,1-ij]quinolin-4-one]	≤ 0.031 µg/mL	–
O=C1CSc2ccc(N3C[C@H](CCNCC4Cn5c(=O)cnc6cccc4c65)OC3=O)cc2N1 (mixture of isomers) [Example 56, (RS)-6-({2-[(S)-2-oxo-3-(3-oxo-3,4-dihydro-2H-benzo[1,4]thiazin-6-yl)-oxazolidin-5-yl]-ethylamino}-methyl)-5,6-dihydro-pyrrolo[1,2,3-de]quinoxalin-3-one]	≤ 0.031 µg/mL	–
O=C1CSc2ccc(N3C[C@@H](CCCN[C@H]4Cn5c(=O)cnc6ccc(F)c4c65)OC3=O)cc2N1 [Example 105, (R)-7-fluoro-6-{3-[(R)-2-oxo-3-(3-oxo-3,4-dihydro-2H-benzo[1,4]thiazin-6-yl)-oxazolidin-5-yl]-propylamino}-5,6-dihydro-pyrrolo[1,2,3-de]quinoxalin-3-one]	≤ 0.031 µg/mL	–
O=C1CSc2ccc(N3C[C@@H](CCCN[C@H]4Cn5c(=O)cnc6ccc(F)c4c65)OC3=O)nc2N1 [Example 132, (R)-7-fluoro-6-{3-[(R)-2-oxo-3-(3-oxo-3,4-dihydro-2H-pyrido[3,2-b][1,4]thiazin-6-yl)-oxazolidin-5-yl]-propylamino}-5,6-dihydro-pyrrolo[1,2,3-de]quinoxalin-3-one]	≤ 0.031 µg/mL	–
O=C1CSc2ccc(N3C[C@@H](CCCN[C@@H]4Cn5c(=O)ccc6cccc4c65)OC3=O)nc2N1 [Example 137, (S)-1-{3-[(R)-2-oxo-3-(3-oxo-3,4-dihydro-2H-pyrido[3,2-b][1,4]thiazin-6-yl)-oxazolidin-5-yl]-propylamino}-1,2-dihydro-pyrrolo[3,2,1-ij]quinolin-4-one]	≤ 0.031 µg/mL	–
O=C1CSc2ccc(N3C[C@H](CCN[C@@H]4Cn5c(=O)ccc6nccc4c65)OC3=O)cc2N1 [Example 41, (S)-4-{2-[(S)-2-oxo-3-(3-oxo-3,4-dihydro-2H-benzo[1,4]thiazin-6-yl)-oxazolidin-5-yl]-ethylamino}-4,5-dihydro-pyrrolo[3,2,1-de][1,5]naphthyridin-7-one]	0.5 µg/mL (≈ 1.08 µM)	–
N—((RS)-9-fluoro-4-oxo-1,2-dihydro-4H-pyrrolo[3,2,1-ij]quinolin-1-yl)-N-{3-[(R)-2-oxo-3-(3-oxo-3,4-dihydro-2H-benzo[1,4]thiazin-6-yl)-oxazolidin-5-yl]-propyl}-acetamide and (RS)-1-{3-[(R)-3-(4-acetyl-3-oxo-3,4-dihydro-2H-benzo[1,4]thiazin-6-yl)-2-oxo-oxazolidin-5-yl]-propylamino}-9-fluoro-1,2-dihydro-pyrrolo[3,2,1-ij]quinolin-4-one [Example 172]	–	0.25 mg/L

Reference: US9822114B2, “Tricyclic oxazolidinone antibiotic compounds” (Idorsia Pharmaceuticals Ltd, priority 2008, dated 2017)
